# Test results: patent US5525626A (priority 1989, dated 1996)
# What was measured:
# Assay in all cases: 3H-thymidine assay
# Assay type in all cases: cell-based
# [1] = tested on: Tp 242 MG glioblastoma cells; conditions: Homo sapiens
# [2] = tested on: Tp 483 MG glioblastoma cells
# At T 20 = conditions: Mus musculus, AtT20
# Method: (§1) The cell lines were cultivated as indicated in Example 1.
# (§2) The antiproliferative effect of the 1,2-benzopyrone derivatives according to the invention on the tumor cell lines in each case was shown with the help of the ^3 H-thymidine insertion and with reference to growth curves.
# (§3) In a 24-well-plate, in each case 10^4 cells of the line to be investigated were inoculated per well. Approximately 48 hours later the cells were half-confluent; the medium was then changed and replaced by a medium containing the active substance in question (cf Table 3). After a further 48 hours 0.25 μCi ^3 H-thymidine (Ammersham) was added to each well and the cells were incubated for a further 24 hours. Subsequently the cultures were washed twice with ice-cold PBS and the high-molecular-weight ^3 H-radioactivity was precipitated with 5% trichloroacetic acid for one hour at 4° C. After the washing of the cells in PBS the ^3 H-radioactivity was solubilized with 0.3M NaOH and measured in the counter. The growth-inhibition was determined by comparing the thymidine insertion of the cells treated with active substance with untreated cells.
# (§4) The active substance concentration in each case was so chosen that ^3 H-thymidine insertion was 50% inhibited. The active substance concentrations used under this aspect for the active substances and cell lines in each case are given in table 4 below in μM/ml, […]
# CAKI-1 cells = conditions: Homo sapiens, CAKI-1
# Method: as §1, §2, §3, §4
# K-562 leukemic cells = conditions: Homo sapiens, K562
# Method: as §1, §2, §3, §4
# [3] = tested on: MCF-7 breast cancer cells; conditions: Homo sapiens, MCF7
# Method: as §1, §2, §3, §4
# CAKI-2 cells = conditions: Homo sapiens, CAKI-2
# Method: as §1, §2
# as §3, with “After a further 48 hours 0.25 μCi ^3 H-thymidine (Ammersham) was added to each well and the cells were incubated for a further 24 hours.” left out
# as §4
# HCV cells = tested on: HCV cells
# G-361 melanoma cells = conditions: Homo sapiens, G-361
# [4] = 1 μM/ml, read-out: 3H-thymidine insertion (%) of control
# [5] = 2 μM/ml, read-out: 3H-thymidine insertion (%) of control
# [6] = 4 μM/ml, read-out: 3H-thymidine insertion (%) of control
# [7] = 8 μM/ml, read-out: 3H-thymidine insertion (%) of control
# [8] = 16 μM/ml, read-out: 3H-thymidine insertion (%) of control
# [9] = 25 μM/ml, read-out: 3H-thymidine insertion (%) of control
# [10] = 50 μM/ml, read-out: 3H-thymidine insertion (%) of control
# [11] = 100 μM/ml, read-out: 3H-thymidine insertion (%) of control
# [12] = 250 μM/ml, read-out: 3H-thymidine insertion (%) of control
# [13] = 500 μM/ml, read-out: 3H-thymidine insertion (%) of control
# [14] = Table 4, read-out: active substance concentration at which 3H-thymidine insertion was 50% inhibited
# [15] = 1 μM/ml, read-out: 3H-thymidine tracer (%) of control
# [16] = 2 μM/ml, read-out: 3H-thymidine tracer (%) of control
# [17] = 4 μM/ml, read-out: 3H-thymidine tracer (%) of control
# [18] = 8 μM/ml, read-out: 3H-thymidine tracer (%) of control
# [19] = 16 μM/ml, read-out: 3H-thymidine tracer (%) of control
# [20] = 25 μM/ml, read-out: 3H-thymidine tracer (%) of control
# [21] = 50 μM/ml, read-out: 3H-thymidine tracer (%) of control
# [22] = 100 μM/ml, read-out: 3H-thymidine tracer (%) of control
# [23] = 250 μM/ml, read-out: 3H-thymidine tracer (%) of control
# [24] = 500 μM/ml, read-out: 3H-thymidine tracer (%) of control
# [25] = 150 μM/ml, read-out: 3H-thymidine tracer (%) of control
# [26] = Table 4, *: maximum usable dosage, no 50% inhibition, read-out: active substance concentration at which 3H-thymidine insertion was 50% inhibited
smiles,measurement,setting,value
"O=c1ccc2ccc(O)cc2o1 [7-OH-1,2-BP, 7-hydroxy-1,2-benzopyrone]",activity at 1 µM,[1]; [4],93%
same,activity at 2 µM,[1]; [5],91%
same,activity at 4 µM,[1]; [6],91%
same,activity at 8 µM,[1]; [7],84%
same,activity at 16 µM,[1]; [8],73%
same,activity at 25 µM,[1]; [9],55%
same,activity at 50 µM,[1]; [10],43%
same,activity at 100 µM,[1]; [11],39%
same,activity at 250 µM,[1]; [12],35%
same,activity at 500 µM,[1]; [13],32%
same,IC50,[1]; [14],25 µM
same,activity at 1 µM,[2]; [4],97%
same,activity at 2 µM,[2]; [5],95%
same,activity at 4 µM,[2]; [6],89%
same,activity at 8 µM,[2]; [7],81%
same,activity at 16 µM,[2]; [8],69%
same,activity at 25 µM,[2]; [9],66%
same,activity at 50 µM,[2]; [10],39%
same,activity at 100 µM,[2]; [11],32%
same,activity at 250 µM,[2]; [12],27%
same,activity at 500 µM,[2]; [13],25%
same,IC50,[2]; [14],25 µM
same,activity at 1 µM,At T 20; [15],98%
same,activity at 2 µM,At T 20; [16],89%
same,activity at 4 µM,At T 20; [17],85%
same,activity at 8 µM,At T 20; [18],78%
same,activity at 16 µM,At T 20; [19],65%
same,activity at 25 µM,At T 20; [20],60%
same,activity at 50 µM,At T 20; [21],62%
same,activity at 100 µM,At T 20; [22],44%
same,activity at 250 µM,At T 20; [23],38%
same,activity at 500 µM,At T 20; [24],31%
same,IC50,At T 20; [14],50 µM
same,activity at 1 µM,CAKI-1 cells; [15],100%
same,activity at 2 µM,CAKI-1 cells; [16],98%
same,activity at 4 µM,CAKI-1 cells; [17],90%
same,activity at 8 µM,CAKI-1 cells; [18],81%
same,activity at 16 µM,CAKI-1 cells; [19],76%
same,activity at 25 µM,CAKI-1 cells; [20],62%
same,activity at 50 µM,CAKI-1 cells; [21],57%
same,activity at 100 µM,CAKI-1 cells; [22],49%
same,activity at 150 µM,CAKI-1 cells; [25],44%
same,activity at 500 µM,CAKI-1 cells; [24],40%
same,IC50,CAKI-1 cells; [26],100 µM
same,activity at 1 µM,K-562 leukemic cells; [15],100%
same,activity at 2 µM,K-562 leukemic cells; [16],91%
same,activity at 4 µM,K-562 leukemic cells; [17],84%
same,activity at 8 µM,K-562 leukemic cells; [18],76%
same,activity at 16 µM,K-562 leukemic cells; [19],67%
same,activity at 25 µM,K-562 leukemic cells; [20],53%
same,activity at 50 µM,K-562 leukemic cells; [21],47%
same,activity at 100 µM,K-562 leukemic cells; [22],42%
same,activity at 250 µM,K-562 leukemic cells; [23],39%
same,activity at 500 µM,K-562 leukemic cells; [24],37%
same,IC50,K-562 leukemic cells; [14],50 µM
same,activity at 1 µM,[3]; [15],98%
same,activity at 2 µM,[3]; [16],94%
same,activity at 4 µM,[3]; [17],88%
same,activity at 8 µM,[3]; [18],82%
same,activity at 16 µM,[3]; [19],75%
same,activity at 25 µM,[3]; [20],69%
same,activity at 50 µM,[3]; [21],62%
same,activity at 100 µM,[3]; [22],51%
same,activity at 250 µM,[3]; [23],43%
same,activity at 500 µM,[3]; [24],29%
same,IC50,[3]; [26],100 µM
same,activity at 1 µM,CAKI-2 cells; [15],95%
same,activity at 2 µM,CAKI-2 cells; [16],92%
same,activity at 4 µM,CAKI-2 cells; [17],88%
same,activity at 8 µM,CAKI-2 cells; [18],77%
same,activity at 16 µM,CAKI-2 cells; [19],71%
same,activity at 25 µM,CAKI-2 cells; [20],65%
same,activity at 50 µM,CAKI-2 cells; [21],54%
same,activity at 100 µM,CAKI-2 cells; [22],46%
same,activity at 150 µM,CAKI-2 cells; [25],39%
same,activity at 500 µM,CAKI-2 cells; [24],35%
same,IC50,CAKI-2 cells; [26],75 µM
same,activity at 1 µM,HCV cells; [15],98%
same,activity at 2 µM,HCV cells; [16],95%
same,activity at 4 µM,HCV cells; [17],88%
same,activity at 8 µM,HCV cells; [18],82%
same,activity at 16 µM,HCV cells; [19],74%
same,activity at 25 µM,HCV cells; [20],69%
same,activity at 50 µM,HCV cells; [21],63%
same,activity at 250 µM,HCV cells; [23],57%
same,activity at 500 µM,HCV cells; [24],50%
same,IC50,HCV cells; [26],500 µM
same,activity at 1 µM,G-361 melanoma cells; [15],94%
same,activity at 2 µM,G-361 melanoma cells; [16],91%
same,activity at 4 µM,G-361 melanoma cells; [17],77%
same,activity at 8 µM,G-361 melanoma cells; [18],77%
same,activity at 16 µM,G-361 melanoma cells; [19],74%
same,activity at 25 µM,G-361 melanoma cells; [20],68%
same,activity at 50 µM,G-361 melanoma cells; [21],58%
same,activity at 100 µM,G-361 melanoma cells; [22],53%
same,activity at 250 µM,G-361 melanoma cells; [23],42%
same,activity at 500 µM,G-361 melanoma cells; [24],38%
same,IC50,G-361 melanoma cells; [26],125 µM
